Data reported in the METLIN SMRT retention time set (Domingo-Almenara et al. 2019).

Assay: gradient 5% acetonitrile 3 min, to 50% in 2 min, to 85% in 15 min, held 3 min, 100 µL/min
Conditions: column: Zorbax Extend-C18 2.1 x 50 mm; eluents: water / acetonitrile, 0.1% formic acid
Outline: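 Mixtures of ~100 pure standards were chromatographed on a Zorbax Extend-C18 column (2.1 × 50 mm, 1.8 μm) at 100 μL/min using water and acetonitrile, each with 0.1% formic acid. Detection used a quadrupole time-of-flight mass spectrometer in positive and negative ionization mode, and data collection spanned 3 months. Retention time was obtained from adduct peaks picked computationally and each checked manually.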

SMILES	RP-LC retention time [s]
O=C(Nc1cccc(C(F)(F)F)c1)Nc1cccn2ncnc12	896
CCOc1ccc2nc(SCC(=O)Nc3nccs3)[nH]c2c1	622
CC(C)n1c(=O)c(NCc2cccc(C(F)(F)F)c2)nc2ccncc21	725
CC(C)NC(=O)N1CCNC(=O)C1	540
CC1=C(C(=O)NCCN2CCOCC2)C2(CCN(Cc3ccccc3)CC2)OC1=O	634
O=S(=O)(c1ccccc1)N1CC(n2cc(COc3ccc(F)cc3)nn2)C1	888
CCOc1ccc(NC(=O)N2CCC3(C2)C(=O)Nc2ccc(OC)cc23)cc1 (stereo not given)	731
O=C(Nc1ccc(CCc2nc3ccccc3n2-c2ccccc2)cc1)c1cnccn1	694
CCn1cnc(S(=O)(=O)N2CCC(C(=O)NC3CCCCC3)CC2)c1	686
COc1ccc(-c2ncc3c(n2)CCN(C(=O)c2ccc(C(F)(F)F)cc2)C3)cc1	1010
CCCCNC(=O)C1CCC(=O)N(c2ccc(OC)cc2)C1c1ccc(OC)c(OC)c1 (stereo not given)	658
O=C(NCCN1CCCCCC1)c1csc(-c2ccnc(N3CCOCC3)c2)n1	569
Cc1ccc(CNC(=O)C2(C)CN(S(C)(=O)=O)CC(=O)N2Cc2ccc(F)cc2)cc1 (stereo not given)	836
CCCCn1cc(S(=O)(=O)Nc2ccccc2)c2cccnc21	937
CC1CCN(c2nc(-c3ccc(Br)cc3)nc3ccccc23)CC1	955
CC(C)(C)c1cc(NCc2ccccn2)n2ncc(-c3ccccc3)c2n1	1230
CN1C[C@@H]2c3ccccc3Oc3ccc(Cl)cc3[C@H]2C1	758
COc1ccc(-c2n[nH]c3c2C(c2cccnc2)N(c2ccc(Br)cc2)C3=O)cc1 (stereo not given)	768
Cc1ccc2nc(-c3cc(Br)ccc3F)c(Nc3ccc4c(c3)OCO4)n2c1	762
Fc1ccccc1-c1ccc(CNCc2ccc3c(c2)OCO3)o1	695
COc1cc(-c2nc3nc(C)cc(C)n3c2Nc2ccccc2)ccc1O	647

SMILES	RP-LC retention time [s]
COc1ccc(S(=O)(=O)N2CCC(CN3CCC(C)CC3)CC2)cc1	655
CCn1cc(CCNC(=O)Nc2cc(C)ccc2C)c2cccnc21	723
CCN(CC)C(=O)N1CCCC(Cc2nncn2-c2ccccc2)C1 (stereo not given)	628
CC(C)Cn1cc(S(=O)(=O)NC2CCCCCC2)c2cccnc21	1060
CC(C)(C)C(=O)N1CCCC(C(=O)Nc2sc3c(c2C(N)=O)CCCC3)C1 (stereo not given)	861
O=C1CCCc2cc(S(=O)(=O)N3CCN(c4cccc(Cl)c4)CC3)ccc2N1	928
Cn1cc(-c2nc(C(=O)N3CCc4ccccc43)cs2)c2cccnc21	1010
COc1ccc(N2CCN(CCNC(=O)c3ccc(S(=O)(=O)N(C)C)cc3)CC2)cc1	589
COc1ccc2c(c1)C1(CCN(C(=O)c3ccccc3F)C1)C(=O)N2 (stereo not given)	703
O=C(Cn1c(=O)n(-c2ccccc2)c2ncccc21)N1CCN(c2ccccn2)CC1	596
COCCn1cc2c3c(cccc31)CN(C(=O)Nc1cc(F)ccc1F)CC2	938
COc1cc2c(cc1OC)C(C(=O)NCCCN1CCCC1=O)C1c3ccccc3CCN1C2=O (stereo not given)	663
COCC1(O)CCOC2(CCN(Cc3ccc(C)cc3)CC2)C1 (stereo not given)	556
COc1ccc(-c2cn3c(CC(=O)Nc4ccc(F)c(F)c4)csc3n2)cc1OC	774
CCc1nnc(-c2cc(NS(=O)(=O)CC)c(C)s2)o1	810
CCCN1CCN(C(=O)CN2C(=O)CCCc3cc(S(=O)(=O)N4CCOCC4)ccc32)CC1	590
O=C(Nc1nc(-c2ccc(F)cc2F)cs1)c1ccccc1F	1130
CCN1C(=O)c2cccnc2Sc2cc(NC(=O)CCc3ccccc3)ccc21	950
c1ccc(-c2nnc3oc(-c4cccs4)nn23)cc1	911
COc1ccccc1C(=O)N1C[C@@H]2C[C@H]1C[C@@H]2NS(C)(=O)=O	632
CN(C)c1ccc(Nc2nc(-c3ccc(O)cc3O)cs2)cc1	850

SMILES	RP-LC retention time [s]
Cc1cc(C(=O)NCCc2ccc(Cl)cc2)n(-c2ccccc2)n1	911
CC(=O)c1ccc(S(=O)(=O)N2CCCC(C)(C(=O)NCc3ccc(F)cc3)C2)cc1 (stereo not given)	876
Cc1ccc(-c2nnc(Cc3nc(-c4ccc(C(F)(F)F)cc4)no3)o2)cc1F	1180
Cc1cnc(C(=O)N2C[C@@H](Oc3cccnc3)C[C@H]2C(=O)NC2CC2)cn1	554
Cn1cc(C2=C(c3ccc(Cl)cc3Cl)C(=O)NC2=O)c2ccccc21	1110
COc1ccc(-c2nc(-c3ccc4oc(C)nc4c3)no2)cc1	1090
O=C(NCCC1=CCCCC1)c1nc(Nc2ccc(F)cc2)c2ccccc2n1	962
COc1cccc(C(=O)NC2CCN(c3ccc(F)cc3)C2=O)c1 (stereo not given)	756
COc1cn2c(cc1=O)C(=O)N(CCNC(=O)C1c3ccccc3Oc3ccccc31)CC2	592
CCCCNC(=O)CSc1nnc(C)c2c(C)n(-c3ccccc3)nc12	646
Cc1ccc(-c2nc(-c3ccc4nnc(C)n4c3)no2)cc1C	1130
c1ccc(-c2ccc(-c3nccc4ccccc34)[nH]2)cc1	806
C/C(=N\O)C1CC(CC(=O)O)C1(C)C (stereo not given)	688
Fc1cccc(-c2noc(Cc3nnc(-c4ccccc4)o3)n2)c1	974
CC(C)OC(=O)Cn1nc2ccc(S(=O)(=O)N3CCSCC3)cn2c1=O	829
Cc1ccccc1Nc1c(-c2c(F)cccc2Cl)nc2cccc(C)n12	762
O=C(C1=CCN(Cc2ccccc2)CC1)N1CCN(c2ccc(F)cc2)CC1	655
COc1ccc(Nc2c(-c3ccc(C)cc3)nc3cnc(Br)cn23)cc1OC	915
CCCCN(C)C(=O)c1cn2cc(C)ccc2n1	608

Other lines, results leading:

RP-LC retention time [s]	SMILES
797	CNC(=O)c1sc(-c2cccc(C)c2)nc1C
762	COC(=O)c1c(C)[nH]c(C(=O)N2CCC(CC(=O)NCc3ccc(C)cc3)CC2)c1C
602	Cn1c(CN2CCN(C(=O)NC(C)(C)C)CC2)nc2cc(C(=O)N3CCCC3)ccc21
607	Cc1cccc(NC(=O)CN2C(=O)C3CCCCN3c3ccc(S(=O)(=O)N(C)C)cc32)c1 (stereo not given)
829	Cc1cc(C)cc(C(=O)N2CCC(c3noc(N)c3C(C)C)CC2)c1
710	Cc1oc(-c2[nH]ncc2C(=O)N2CCCCC2)cc1S(=O)(=O)Nc1cccc(F)c1
755	CC1CCN(CCNS(=O)(=O)c2ccccc2-c2nc(-c3cccc(F)c3)no2)CC1
721	Cc1cc(NC(=O)C2CCCN(c3nnc4cccc(C)n34)C2)ccc1F (stereo not given)
832	Cc1ccc(NC(=O)C2CCN(C(=O)c3ncn4c3COC(c3ccc(F)cc3)C4)CC2)c(C)c1 (stereo not given)
936	CCC1Oc2ccc(S(=O)(=O)N3CCC(C(=O)Nc4cc(C)ccc4OC)CC3)cc2NC1=O (stereo not given)
793	CN1C(=O)c2cc(C(=O)NCc3cccc(Cl)c3)nn2CC1(C)C(=O)NC1CCCCC1 (stereo not given)
1170	Cc1cc(C)c(C)c(S(=O)(=O)N2CC(=O)N(CC3CC3)CC23CCCC3)c1C
864	Cc1ccc(NC(=O)c2ncn3c2C(=O)N(C2CC2)C(C)(C(=O)NC2CCCC2)C3)c(Cl)c1 (stereo not given)
1120	Cc1ccc(Cl)cc1NC(=O)N1CCCC1c1nc(-c2ccccc2C)no1 (stereo not given)
873	Cc1nc(-c2ccc(N3CCN(C(=O)c4ccccc4F)CC3)nc2)sc1C
640	CC(C)n1c(CN2CCOCC2)nc2cc(NC(=O)c3cccs3)ccc21
787	Cc1ccc(CCNC(=O)Cn2c(C)nc3onc(C)c3c2=O)cc1
1040	CC1CCN(C(=O)C2CCN(S(=O)(=O)c3ccc(-c4noc(C5CC5)n4)cc3)CC2)CC1
731	CCOC(=O)N1CCC(Nc2c(C(=O)OC)c(=O)[nH]c3c(Cl)cccc23)CC1
896	Cc1ccccc1CNC(=O)C1CCCN(C(=O)c2[nH]c(C)c(C(=O)OC(C)C)c2C)C1 (stereo not given)
762	Cc1ccc(NC(=O)N2CCc3c(c(-c4nc(C)no4)nn3C)C2)c(C)c1
981	Cc1ccc(NC(=O)c2cn(C)nc2S(=O)(=O)N2CCSCC2)cc1F
828	CC(C)c1cc(C2CCCN2C(=O)c2ccsc2)no1 (stereo not given)
634	CC(C)NC(=O)Nc1cc2c(cc1N1CCOCC1)n(C)c(=O)n2C
753	CCCN1C(=O)c2cccnc2Sc2cc(C(=O)NC(C)C)ccc21
651	Cc1ccc(CN2CCn3nnc(CCC(=O)N4CCCC4)c3C2)s1
774	Cc1ccc(NC(=O)C2CCN(S(=O)(=O)c3ccc4c(c3)CCCC(=O)N4)CC2)c(C)c1
601	COCCNC(=O)CC1CCN(C(=O)c2ccc3oc(C4CC4)nc3c2)CC1
726	O=C(c1ccc(F)cc1)N1CCCC1c1nc(-c2ccccc2)n[nH]1 (stereo not given)
